From the METLIN SMRT retention time set (Domingo-Almenara et al. 2019)

Assay: gradient 5% acetonitrile 3 min, to 50% in 2 min, to 85% in 15 min, held 3 min, 100 µL/min
Conditions: column: Zorbax Extend-C18 2.1 x 50 mm; eluents: water / acetonitrile, 0.1% formic acid
How it was run: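 Over 3 months, pure standards in mixtures of ~100 molecules were run by HPLC coupled to a quadrupole time-of-flight mass spectrometer in positive and negative ionization mode. The column was a Zorbax Extend-C18 (2.1 × 50 mm, 1.8 μm) at 100 μL/min, eluted with water and acetonitrile each holding 0.1% formic acid, with 40 μL dead and 900 μL dwell volumes. Retention time was determined from adduct peaks chosen by software and checked manually.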

| SMILES | RP-LC retention time [s] |
| --- | --- |
| O=C(c1ccc(Cl)s1)N1CCCC(CCc2nnc(C3CCOCC3)o2)C1 (stereo not given) | 790 |
| CCCn1cnc2cc(-c3noc(CNC(=O)c4ccccc4)n3)ccc21 | 667 |
| Cc1ccc(CC(=O)Nc2ccc3c(c2)CCC(=O)N3)cc1 | 708 |
| Cn1cnc(S(=O)(=O)N2CCC(Cc3nncn3Cc3ccccc3)CC2)c1 | 618 |
| Cc1nc(-c2ccc(F)cc2)sc1C(=O)NC(C)C | 890 |
| CN(C)[C@@H](CCOc1cccc2ccccc12)c1ccccc1 | 807 |
| O=C(Cn1nc2c3cc(-c4ccc(F)cc4)nn3ccn2c1=O)Nc1ccccc1Br | 945 |
| O=C(NCCc1c[nH]c2ccccc12)c1ccc(N2CCCC2)c(S(=O)(=O)N2CCCC2)c1 | 979 |
| CCCn1c(=O)sc2cc(S(=O)(=O)N3CCC(C(=O)Nc4ccc(C)cc4C)CC3)ccc21 | 997 |
| CCn1nc(C)c(CCNC(=O)c2cc3c(=O)n(CCOC)ccc3nc2C)c1C | 576 |
| O=C(C1CCN(Cc2cc3ccccc3n2Cc2cccc(F)c2)CC1)N1CCCC1 | 721 |
| COc1ccc(-c2noc(C3CCCN3C(=O)Nc3cc(C)ccc3OC)n2)cc1 (stereo not given) | 859 |
| CCc1cc(OCC(=O)N2CCN(c3ccccn3)CC2)nc2c1c(C)nn2-c1ccc(C)cc1 | 790 |
| Cc1ccc(S(=O)(=O)CCc2nc(-c3cccc(-c4ccnn4C)c3)no2)cc1 | 910 |
| COc1ccc(Cl)cc1NC(=O)N1CCCC(C)(C(=O)NCc2ccccc2)C1 (stereo not given) | 998 |
| Cc1ccc(NC(=O)Cn2nc(C(=O)N3CCOCC3)c3ccccc32)c(Br)c1 | 825 |
| CCN(c1ccccc1)S(=O)(=O)c1cc(-c2[nH]ncc2C(=O)N(C)C)oc1C | 739 |
| O=C(CSc1nnc2c3cc(-c4ccc(F)cc4)nn3ccn12)Nc1ccccc1Br | 935 |
| COc1ccccc1NC(=O)N1CCC(c2cc(N)on2)CC1 | 678 |
| CCOc1cc(S(=O)(=O)Nc2cccc3cn[nH]c23)ccc1Br | 804 |

| SMILES | RP-LC retention time [s] |
| --- | --- |
| CCc1onc(C)c1C1CCCN1C(=O)Nc1cccc(F)c1 (stereo not given) | 832 |
| Cc1cc(C)c2c(N3CCSCC3)nc(C(=O)N3CCCN(C)CC3)nc2n1 | 600 |
| CNC(=O)c1cncc(OC(C)C)c1 | 610 |
| CC(=O)c1ccc(N2CCN(C(=O)Cn3ccc4ccc(-c5nnc(C)o5)cc43)CC2)cc1 | 764 |
| CCC(C)NC(=O)C1CCN(S(=O)(=O)c2c(C)nn(-c3ccc(C)cc3)c2C)CC1 (stereo not given) | 683 |
| CCc1nc2cc3c(cc2n1CC(=O)Nc1ccc2c(c1)OCCO2)OCCO3 | 618 |
| Cc1ccc2c(c1)C(C)(C)C(=O)N2CC(=O)N1CCN(c2ncccn2)CC1 | 773 |
| CCCN(C)C(=O)c1ccc2nc(-c3ccc(C)cc3)cn2c1 | 641 |
| CNC(=O)C1CCN(c2nc3ccc(-c4ccc(OC)cc4)nc3s2)CC1 | 771 |
| Cc1ccc(CSc2nccc3c2ccn3CC(=O)NCc2ccco2)cc1 | 729 |
| Cc1ccc(CNC(=O)c2cc(C)n3nc(-c4ccccn4)cc3n2)cc1 | 924 |
| CC(Oc1cccc(F)c1)C(=O)NCCOc1ccccc1 (stereo not given) | 857 |
| CCOc1ccccc1NC(=O)C1CCCN(c2nc3c(s2)c(C)nn3-c2ccc(C)cc2)C1 (stereo not given) | 1360 |
| O=C(CSc1nnc2c3sc(N4CCCC4)nc3ncn12)NC1CCCCC1 | 767 |
| CC(C)c1nc2cccnc2n1CCN1CCN(C(=O)Nc2ccccc2Cl)CC1 | 607 |
| COc1cc(NC(=O)COc2cc(C(F)(F)F)c3c(C)nn(C)c3n2)cc(OC)c1 | 1030 |
| CCC1(C(=O)NCc2ccc(Cl)cc2)CCCCC(=O)N1 (stereo not given) | 738 |
| O=C(c1ccc(Cl)s1)N1CCN(CC(O)c2cccs2)CC1 (stereo not given) | 572 |
| CCOC(=O)C1=C(CNc2ccc(F)cc2)NC(=O)NC1c1ccccc1 (stereo not given) | 868 |
| COCc1nc(NCc2ccc3c(c2)OCO3)ncc1C(=O)O | 673 |

| SMILES | RP-LC retention time [s] |
| --- | --- |
| Cc1noc(C2(NC(=O)C3COc4ccccc4O3)CCCCC2)n1 (stereo not given) | 920 |
| Cc1cc(C)cc(-n2ccn(Cc3nc(-c4ccc(C)cc4C)no3)c(=O)c2=O)c1 | 1020 |
| CC1CCN(c2nc(C(=O)NCc3ccccn3)nc3c2cnn3C)CC1 | 660 |
| Cc1ccc(CSc2nnc(-c3ccccc3Cl)o2)cc1 | 1190 |
| Cc1cc(N2CCN(C)CC2)n2nc(CN3CCN(c4ccc(Cl)cc4)CC3)nc2n1 | 572 |
| Cc1ncc2c(n1)C[C@@H]1CC[C@H]2N1C(=O)Cc1ccccc1 | 648 |
| COCC(=O)NC/C=C/c1ccc2ncnc(Nc3ccc(Oc4ccc(C)nc4)c(C)c3)c2c1 | 622 |
| O=C(NC1CCCCCC1)C1CCN(c2nccnc2Oc2ccccc2)CC1 | 1020 |
| COCCn1cc(C(=O)NC2CCCCCC2)c2nn(-c3ccccc3)c(=O)c-2c1 | 1010 |
| CC(C)N1CCN(Cc2nc(-c3ccc(N4CCSCC4)nc3)no2)CC1 | 614 |
| Cc1cc(C)n(-c2ccnc(NCc3cccnc3)n2)n1 | 588 |
| O=C(c1c(F)cccc1F)N1CCN=C1SCc1cccnc1 | 582 |
| CCc1cccc(N2C=C(C(=O)N3CCOCC3)S(=O)(=O)c3ccc(F)cc32)c1 | 858 |
| O=C(Nc1ccc(N2CCOCC2)cc1)c1cc2ccccc2o1 | 757 |
| CN(C)C(CNC(=O)c1cc(=O)c2cc(Cl)ccc2o1)c1cccs1 (stereo not given) | 631 |
| CCS(=O)(=O)N1CCC[C@H](n2c(=O)n(C)c3cccnc32)C1 | 698 |
| CCc1noc(-c2nc(-c3ccc(OC)cc3)no2)n1 | 986 |
| Clc1ccccc1-c1nc(-c2ccncc2)no1 | 1040 |

Other lines, results leading:

| RP-LC retention time [s] | SMILES |
| --- | --- |
| 818 | Cc1ccc(Cl)cc1NC(=O)CN(C)S(=O)(=O)c1c[nH]c(C(=O)N2CCCC2)c1 |
| 650 | Cc1ccc(C)c(Cn2nnc(C(=O)O)c2-c2ccncc2)c1 |
| 1230 | Cc1cc(C)cc(-c2nnc(Cc3nc(-c4cccc(Cl)c4)no3)o2)c1 |
| 775 | CCc1noc([C@@H]2CC(F)(F)CN2C(=O)CCc2c(C)noc2C)n1 |
| 774 | COc1cc(Cl)c(C)cc1NC(=O)CSc1ccc(N2CCCC(C(=O)NC3CC3)C2)nn1 (stereo not given) |
| 1020 | Cc1nn(C)c2nc(OC(C)C(=O)NCc3ccccc3Cl)cc(C(F)(F)F)c12 (stereo not given) |
| 980 | N#Cc1ccc(S(=O)(=O)N2CC(c3nc(CCOCc4ccccc4)no3)C2)cc1 |
| 1240 | Cc1sc(NC(=O)c2ccc(F)cc2)nc1-c1ccc(Br)cc1 |
| 787 | O=C(Nc1ccc(Cl)cc1)C1CC(=O)N(c2n[nH]c3cccc(F)c23)C1 (stereo not given) |
| 921 | CCOc1ccc(-c2cn3ccn(-c4ccc(C)cc4C)c(=O)c3n2)cc1 |
| 645 | CN(C)CCN(Cc1ccccc1)C(=O)Cn1c(=O)oc2ccccc21 |
| 974 | CC1CCN(S(=O)(=O)c2cccn(Cc3cc(F)cc(F)c3)c2=O)CC1 |
| 719 | CCN1C(=O)COc2ccc(-c3csc(NC(C)=O)n3)cc21 |
| 681 | COc1ccccc1CNC(=O)C1CCN(C(=O)c2nn(C)c3c2CN(C(=O)C(C)C)CC3)CC1 |
| 802 | CCN1C(=O)c2cccnc2Sc2cc(NC(=O)c3ccc4c(c3)OCO4)ccc21 |
| 1030 | Cc1nc(-c2cn(C(C)C)c3ncccc23)sc1C(=O)NCc1ccccc1F |

| RP-LC retention time [s] | SMILES |
| --- | --- |
| 860 | COc1cc(C(=O)Nc2nc(-c3ccc4c(c3)N(C)C(=O)CO4)cs2)cc(OC)c1OC |
| 651 | Cc1oc2c(c1C(=O)NCCc1ccccc1Cl)C1=NCCN1C=N2 |
| 1020 | Cc1cc(C(=O)N2CCCCC2)c2c(=O)n(Cc3nc(-c4ccccc4)oc3C)c(=O)n(C)c2n1 |
| 627 | O=C(O)c1cccc(-c2ccc(N3CCCCCC3)nc2)c1 |
| 783 | COc1cccc(NC(=O)C2CCN(S(=O)(=O)c3ccc4[nH]c(=O)sc4c3)CC2)c1 |
| 879 | Cc1ccc(NC(=O)Cn2c(=O)n(-c3ccc(F)cc3)c(=O)c3c2cc(C)n3C)c(C)c1 |
| 769 | Cc1ccc(-c2cc3c(N4CCC(C(=O)NC(C)C)CC4)nccn3n2)c(C)c1 |
| 588 | CN(C)c1ncncc1N1CCC(C(=O)NCc2ccco2)CC1 |
| 652 | Cc1cccc(C)c1N1CC(c2nc3ccccc3n2CC(=O)N2CCOCC2)CC1=O (stereo not given) |
| 780 | Cc1ccc(NC(=O)Cn2nc(N3CCOCC3)c3ccccc3c2=O)cc1Cl |
| 894 | COc1ccccc1-c1noc(C2CCCN2C(=O)Nc2cccc(F)c2)n1 (stereo not given) |
| 998 | Cc1ccc(C)c(N2CC(c3nc(-c4ccc5c(c4)OCO5)no3)CC2=O)c1 (stereo not given) |
| 678 | CCn1cnc(S(=O)(=O)N2CCC(C(=O)N3CCC(C)CC3)CC2)c1 |
| 647 | CC(C)C(=O)Nc1ccc(-n2cnc(C(=O)NCC3CCCO3)c2)nc1 (stereo not given) |
| 656 | CCNC(=O)c1nc(C(=O)NC(C)C)cs1 |
| 618 | CCc1nccn1Cc1nc(-c2ccc(OC)c(OC)c2)no1 |
